What all share (format): cell-based
Assay [1] concerns the target mouse fibroblast cell line transfected with the HER-2 oncogene (3T3/neu) (UniProt P04626, cells depend on it, species not given). Kind of assay: Cell proliferation assay (SRB), 3T3/neu. Particulars: EGFR −, Her-2 +++; 2 days, SRB; read-out: CELL IC50 3T3/NEU (converted).
Assay [2] deals with SW620 cells. Kind of assay: Cell proliferation assay (SRB), SW620. Particulars: Homo sapiens, SW-620, 48 h; EGFR −, Her-2 −; 2 days, SRB; read-out: CELL IC50 SW620.
Assay [3] relates to A431 cells. Nature of the assay: Cell proliferation assay (SRB), A431. Particulars: Homo sapiens, A-431, 48 h; EGFR +++, Her-2 +; 2 days, SRB; read-out: CELL IC50 A431.
Assay [4] has as its system SK-Br-3 cells. Nature of the assay: Cell proliferation assay (SRB), SK-Br-3. Particulars: Homo sapiens, SK-BR-3, 48 h; EGFR −, Her-2 +++; 2 days, SRB; read-out: CELL IC50 SKBr3.

Molecules are shown by their SMILES. In brackets after ≈: the same amount, converted by molar mass. Bounds are passed on as bounds.

`CCOc1cc2ncc(C#N)c(Nc3ccc4c(c3)C(=O)OC4)c2cc1OCC` [Example 29, 6,7-Diethoxy-4-(3-oxo-1,3-dihydro-isobenzofuran-5-ylamino)-quinoline-3-carbonitrile]: the GI50 in assay [1] is 8.48 µM.

On to `CCOc1cc2ncc(C#N)c(Nc3ccc4c(=O)[nH][nH]c(=O)c4c3)c2cc1OCC` [Example 25, 4-(1,4-Dioxo-1,2,3,4-tetrahydro-phthalazin-6-ylamino)-6,7-diethoxy-quinoline-3-carbonitrile], for which the GI50 in assay [1] is > 12 µM.

For the molecule `CCOc1cc2ncc(C#N)c(Nc3ccc4[nH]c(=O)oc(=O)c4c3)c2cc1OCC` [Example 27, 4-(2,4-Dioxo-1,4-dihydro-2H-benzo[d][1,3]oxazin-6-ylamino)-6,7-diethoxy-quinoline-3-carbonitrile], in assay [1], the GI50 was 11 µM.

In the case of `CCOc1cc2ncc(C#N)c(Nc3ccc4c(c3)CCC4=O)c2cc1OCC` [Example 28, 6,7-Diethoxy-4-(1-oxo-indan-5-ylamino)-quinoline-3-carbonitrile], in assay [1], the GI50 was 0.0803 µM. Besides, the IC50 was determined as 0.0244 µg/mL (≈ 0.063 µM) in assay [2] and 0.0181 µg/mL (≈ 0.0467 µM) in assay [3].

`CCOc1cc2ncc(C#N)c(Nc3ccc4c(c3)OCCO4)c2cc1OCC` [Example 23, 4-(2,3-Dihydro-benzo[1,4]dioxin-6-ylamino)-6,7-diethoxy-quinoline-3-carbonitrile]: the GI50 in assay [1] was 0.958 µM.

With `COCCOc1cc2ncc(C#N)c(Nc3ccc4cn[nH]c4c3)c2cc1OCCOC` [Example 24, 4-(1H-Indazol-6-ylamino)-6,7-bis-(2-methoxy-ethoxy)-quinoline-3-carbonitrile], the GI50 in assay [1] was > 11.5 µM.

`CCOc1cc2c(Nc3ccc4cn[nH]c4c3)c(C#N)cnc2cc1OC` [Example 32, 6-Ethoxy-4-(1H-indazol-6-ylamino)-7-methoxy-quinoline-3-carbonitrile]: the GI50 in assay [1] is 13.4 µM.

On to `CCOc1cc2ncc(C#N)c(Nc3ccc4cn[nH]c4c3)c2cc1OC` [Example 31, 7-Ethoxy-4-(1H-indazol-6-ylamino)-6-methoxy-quinoline-3-carbonitrile], for which, in assay [1], the GI50 is 0.0743 µM.

With `COc1cc2c(Nc3ccc(Sc4nccn4C)c(Cl)c3)c(C#N)cnc2cc1OCCCn1ccnn1` [Example 73, 4-{3-chloro-4-[(1-methyl-1H-imidazol-2-yl)sulfanyl]anilino}-6-methoxy-7-[3-(1H-1,2,3-triazol-1-yl)propoxy]-3-quinolinecarbonitrile], the GI50 in assay [1] was 1.78 µM. Further, the values for the half-maximal inhibitory concentration (IC50) in assay [2], in assay [3] and in assay [4] were 3.69 µg/mL (≈ 6.75 µM), 1.83 µg/mL (≈ 3.35 µM) and 0.104 µg/mL (≈ 0.19 µM), respectively.

Consider `CCOc1cc2ncc(C#N)c(Nc3ccc4c(c3)CCC4)c2cc1OCC` [Example 26, 6,7-Diethoxy-4-(indan-5-ylamino)-quinoline-3-carbonitrile], for which the GI50 in assay [1] was 0.053 µM. Also, in assay [2], the IC50 came to 0.294 µg/mL (≈ 0.787 µM).

As to `COc1cc2c(Nc3ccc(Sc4nccn4C)c(Cl)c3)c(C#N)cnc2cc1OCCCN1CCOCC1` [Example 51, 4-{3-chloro-4-[(1-methyl-1H-imidazol-2-yl)sulfanyl]anilino}-6-methoxy-7-[3-(4-morpholinyl)propoxy]-3-quinolinecarbonitrile], the GI50 in assay [1] was 0.347 µM. The IC50 in assay [2] was found to be 2.18 µg/mL (≈ 3.86 µM); in assay [3], 0.775 µg/mL (≈ 1.37 µM); in assay [4], 0.32 µg/mL (≈ 0.566 µM).

Consider `CCOc1cc2ncc(C#N)c(Nc3ccc4c(c3)C(=O)NCC(=O)N4C)c2cc1OCC` [Example 33, 6,7-Diethoxy-4-(1-methyl-2,5-dioxo-2,3,4,5-tetrahydro-1H-benzo[e][1,4]diazepin-7-ylamino)-quinoline-3-carbonitrile], for which the GI50 in assay [1] was > 11.2 µM.

By IC50 is commonly meant the point on the concentration scale where inhibition reaches its midpoint.

For the origin of these results see patent US7982043B2, “Protein tyrosine kinase enzyme inhibitors” (Wyeth LLC, priority 2003, dated 2011).
